ChEMBL document CHEMBL4138123, “Design, synthesis and biological evaluation of novel pyrazolochalcones as potential modulators of PI3K/Akt/mTOR pathway and inducers of apoptosis in breast cancer cells” (Eur J Med Chem, 2017)

Assays:
[1] = tested on: COLO 205; test: Cytotoxicity against human COLO205 cells assessed as growth inhibition after 48 hrs by sulforhodamine B assay; type: functional; settings: COLO 205, 48 h
[2] = tested on: HCT-15; test: Cytotoxicity against human HCT15 cells assessed as growth inhibition after 48 hrs by sulforhodamine B assay; type: functional; settings: HCT-15, 48 h
[3] = tested on: U-251; test: Cytotoxicity against human U251 cells assessed as growth inhibition after 48 hrs by sulforhodamine B assay; type: functional; settings: U-251, 48 h
[4] = tested on: UACC-257; test: Cytotoxicity against human UACC257 cells assessed as growth inhibition after 48 hrs by sulforhodamine B assay; type: functional; settings: UACC-257, 48 h
[5] = tested on: MDA-MB-231; test: Cytotoxicity against human MDA-MB-231 cells assessed as growth inhibition after 48 hrs by MTT assay; type: functional, cell-based; settings: MDA-MB-231, 48 h
[6] = tested on: OVCAR-8; test: Cytotoxicity against human OVCAR8 cells assessed as cell growth at 0.01 uM after 48 hrs by sulforhodamine B assay relative to control; type: functional; settings: OVCAR-8, 48 h, read-out: Activity
[7] = tested on: UACC-62; test: Cytotoxicity against human UACC62 cells assessed as cell growth at 0.01 uM after 48 hrs by sulforhodamine B assay relative to control; type: functional; settings: UACC-62, 48 h, read-out: Activity
[8] = tested on: SK-MEL-28; test: Cytotoxicity against human SK-MEL-28 cells assessed as cell growth at 0.01 uM after 48 hrs by sulforhodamine B assay relative to control; type: functional; settings: SK-MEL-28, 48 h, read-out: Activity
[9] = tested on: SF-268; test: Cytotoxicity against human SF268 cells assessed as cell growth at 0.01 uM after 48 hrs by sulforhodamine B assay relative to control; type: functional; settings: SF-268, 48 h, read-out: Activity
[10] = tested on: COLO 205; test: Cytotoxicity against human COLO205 cells assessed as cell growth at 0.01 uM after 48 hrs by sulforhodamine B assay relative to control; type: functional; settings: COLO 205, 48 h, read-out: Activity
[11] = tested on: MOLT-4; test: Cytotoxicity against human MOLT4 cells assessed as cell growth at 0.01 uM after 48 hrs by sulforhodamine B assay relative to control; type: functional; settings: MOLT-4, 48 h, read-out: Activity
[12] = tested on: MDA-MB-231; test: Cytotoxicity against human MDA-MB-231 cells assessed as cell growth at 0.01 uM after 48 hrs by sulforhodamine B assay relative to control; type: functional; settings: MDA-MB-231, 48 h, read-out: Activity
[13] = tested on: Hs-578T; test: Cytotoxicity against human Hs 578T cells assessed as cell growth at 0.01 uM after 48 hrs by sulforhodamine B assay relative to control; type: functional; settings: read-out: Activity
[14] = tested on: MDA-MB-468; test: Cytotoxicity against human MDA-MB-468 cells assessed as cell growth at 0.01 uM after 48 hrs by sulforhodamine B assay relative to control; type: functional; settings: MDA-MB-468, 48 h, read-out: Activity
[15] = tested on: SR; test: Cytotoxicity against human SR cells assessed as cell growth at 0.1 uM after 48 hrs by sulforhodamine B assay relative to control; type: functional; settings: read-out: Activity
[16] = tested on: NCI-H23; test: Cytotoxicity against human NCI-H23 cells assessed as cell growth at 0.1 uM after 48 hrs by sulforhodamine B assay relative to control; type: functional; settings: NCI-H23, 48 h, read-out: Activity
[17] = tested on: MDA-MB-435; test: Cytotoxicity against human MDA-MB-435 cells assessed as cell growth at 0.1 uM after 48 hrs by sulforhodamine B assay relative to control; type: functional; settings: MDA-MB-435, 48 h, read-out: Activity
[18] = tested on: ACHN; test: Cytotoxicity against human ACHN cells assessed as cell growth at 0.1 uM after 48 hrs by sulforhodamine B assay relative to control; type: functional; settings: read-out: Activity
[19] = tested on: MDA-MB-231; test: Cytotoxicity against human MDA-MB-231 cells assessed as cell growth at 0.1 uM after 48 hrs by sulforhodamine B assay relative to control; type: functional; settings: MDA-MB-231, 48 h, read-out: Activity
[20] = tested on: MDA-MB-468; test: Cytotoxicity against human MDA-MB-468 cells assessed as cell growth at 0.1 uM after 48 hrs by sulforhodamine B assay relative to control; type: functional; settings: MDA-MB-468, 48 h, read-out: Activity
[21] = tested on: NCI-H23; test: Cytotoxicity against human NCI-H23 cells assessed as cell growth at 1 uM after 48 hrs by sulforhodamine B assay relative to control; type: functional; settings: NCI-H23, 48 h, read-out: Activity
[22] = tested on: OVCAR-8; test: Cytotoxicity against human OVCAR8 cells assessed as cell growth at 1 uM after 48 hrs by sulforhodamine B assay relative to control; type: functional; settings: OVCAR-8, 48 h, read-out: Activity
[23] = tested on: PC-3; test: Cytotoxicity against human PC3 cells assessed as cell growth at 1 uM after 48 hrs by sulforhodamine B assay relative to control; type: functional; settings: PC-3, 48 h, read-out: Activity
[24] = tested on: HL-60(TB); test: Cytotoxicity against human HL-60(TB) cells assessed as cell growth at 10 uM after 48 hrs by sulforhodamine B assay relative to control; type: functional; settings: HL-60, 48 h, read-out: Activity
[25] = tested on: HCC 2998; test: Cytotoxicity against human HCC2998 cells assessed as cell growth at 10 uM after 48 hrs by sulforhodamine B assay relative to control; type: functional; settings: HCC 2998, 48 h, read-out: Activity
[26] = tested on: KM12; test: Cytotoxicity against human KM12 cells assessed as cell growth at 10 uM after 48 hrs by sulforhodamine B assay relative to control; type: functional; settings: KM12, 48 h, read-out: Activity
[27] = tested on: SK-MEL-28; test: Cytotoxicity against human SK-MEL-28 cells assessed as cell growth at 10 uM after 48 hrs by sulforhodamine B assay relative to control; type: functional; settings: SK-MEL-28, 48 h, read-out: Activity
[28] = tested on: OVCAR-3; test: Cytotoxicity against human OVCAR3 cells assessed as cell growth at 10 uM after 48 hrs by sulforhodamine B assay relative to control; type: functional; settings: OVCAR-3, 48 h, read-out: Activity
[29] = tested on: OVCAR-8; test: Cytotoxicity against human OVCAR8 cells assessed as cell growth at 10 uM after 48 hrs by sulforhodamine B assay relative to control; type: functional; settings: OVCAR-8, 48 h, read-out: Activity
[30] = tested on: A498; test: Cytotoxicity against human A498 cells assessed as cell growth at 10 uM after 48 hrs by sulforhodamine B assay relative to control; type: functional; settings: A498, 48 h, read-out: Activity
[31] = tested on: SN12C; test: Cytotoxicity against human SN12C cells assessed as cell growth at 10 uM after 48 hrs by sulforhodamine B assay relative to control; type: functional; settings: read-out: Activity
[32] = tested on: MDA-MB-231; test: Cytotoxicity against human MDA-MB-231 cells assessed as cell growth at 10 uM after 48 hrs by sulforhodamine B assay relative to control; type: functional; settings: MDA-MB-231, 48 h, read-out: Activity
[33] = tested on: BT-549; test: Cytotoxicity against human BT549 cells assessed as cell growth at 10 uM after 48 hrs by sulforhodamine B assay relative to control; type: functional; settings: BT-549, 48 h, read-out: Activity
[34] = tested on: K562; test: Cytotoxicity against human K562 cells assessed as cell growth at 100 uM after 48 hrs by sulforhodamine B assay relative to control; type: functional; settings: K562, 48 h, read-out: Activity
[35] = tested on: HCT-116; test: Cytotoxicity against human HCT116 cells assessed as cell growth at 100 uM after 48 hrs by sulforhodamine B assay relative to control; type: functional; settings: HCT-116, 48 h, read-out: Activity
[36] = tested on: SF-268; test: Cytotoxicity against human SF268 cells assessed as cell growth at 100 uM after 48 hrs by sulforhodamine B assay relative to control; type: functional; settings: SF-268, 48 h, read-out: Activity

`COc1ccc(C(=O)/C=C/c2cc(-c3cc(OC)c(OC)c(OC)c3)n[nH]2)cc1OC` showed an LC50 [1] of 5.92 µM, a TGI [1] of 3.21 µM and an LC50 [2] of 6.4 µM. It also gave a TGI [2] of 2.85 µM, an LC50 [3] of 4.99 µM and a TGI [3] of 2.48 µM. The LC50 [4] was 5.37 µM, the TGI [4] was 2.83 µM and the IC50 [5] was 0.62 µM. It also gave a growth at 0.01 µM [6] of 97%, a growth at 0.01 µM [7] of 98% and a growth at 0.01 µM [8] of 97%. The growth at 0.01 µM [9] was 93%, the growth at 0.01 µM [10] was 107% and the growth at 0.01 µM [11] was 102%. The growth at 0.01 µM [12] was 104%, the growth at 0.01 µM [13] was 98% and the growth at 0.01 µM [14] was 89%. It also gave a growth at 0.1 µM [15] of 81%, a growth at 0.1 µM [16] of 94% and a growth at 0.1 µM [17] of 92%. For the same compound, the growth at 0.1 µM [18] was 97%, the growth at 0.1 µM [19] was 101% and the growth at 0.1 µM [20] was 89%. It also gave a growth at 1 µM [21] of 93%, a growth at 1 µM [22] of 69% and a growth at 1 µM [23] of 71%. For the same compound, the growth at 10 µM [24] was -41%, the growth at 10 µM [25] was -85% and the growth at 10 µM [26] was -87%. It also gave a growth at 10 µM [27] of -88%, a growth at 10 µM [28] of -91% and a growth at 10 µM [29] of -89%. For the same compound, the growth at 10 µM [30] was -87%, the growth at 10 µM [31] was -82% and the growth at 10 µM [32] was -82%. For the same compound, the growth at 10 µM [33] was -88%, the growth at 100 µM [34] was -15% and the growth at 100 µM [35] was -13%. The growth at 100 µM [36] was -88%.
